Publication PMC11855827, “High-Throughput Screening of Five Compound Libraries for Anthelmintic Activity and Toxicity Leads to the Discovery of Two Flavonoid Compounds” (International Journal of Molecular Sciences, 2025)
Read-outs that look alike come from different tables or passages of the source.

Test system: C. elegans
Assay: microbe, parasite or virus in culture
Conditions: Caenorhabditis elegans
[1] = 0 h, read-out: Percentage of motility inhibition 0 h, Table S2, C. elegans SS assay, 110 μM, 0 h, averages of 4 data points
[2] = 24 h, read-out: Percentage of motility inhibition 24 h, Table S2, C. elegans SS assay, 110 μM, 24 h, averages of 4 data points
[3] = 0 h, read-out: Percentage of motility inhibition 0 h
[4] = 24 h, read-out: Percentage of motility inhibition 24 h

Row | Compound | inhibition at 110 µM [1] [%] | inhibition at 110 µM [2] [%] | inhibition at 110 µM [3] [%] | inhibition at 110 µM [4] [%]
1 | O=c1c2ccccc2nc2n1CCc1c-2[nH]c2ccccc12 [Rutaecarpine] | 0 | 24 |  | 
2 | C[C@@H]1O[C@@H](OC[C@H]2O[C@@H](Oc3c(-c4ccc(O)c(O)c4)oc4cc(O)cc(O)c4c3=O)[C@H](O)[C@@H](O)[C@@H]2O)[C@H](O)[C@H](O)[C@H]1O [Rutin] | 4 | 0 |  | 
3 | C=C1CCC2(C(C)C)CC12 (stereo not shown) [Sabinene] | 0 | 20 |  | 
4 | C[C@H]1O[C@@H](O[C@H]2CC[C@@]3(C)[C@@H](CC[C@]4(C)[C@@H]3C=C[C@]35OC[C@@]6(CCC(C)(C)C[C@H]63)[C@@H](O)C[C@]54C)[C@]2(C)CO)[C@H](O)[C@@H](O[C@@H]2O[C@H](CO)[C@@H](O)[C@H](O)[C@H]2O)[C@H]1O [Saikosaponin A] | 2 | 4 |  | 
5 | COc1cc(O)c2c(c1)O[C@H](c1ccc(O)cc1)CC2=O [Sakuranetin] | 19 | 18 |  | 
6 | NC(=O)c1ccccc1O [Salicylamide] | 2 | 0 |  | 
7 | O=C(Nc1ccccc1)c1ccccc1O [Salicylanilide] | 43 | 21 |  | 
8 | O=C(O)c1ccccc1O [Salicylic acid] | 12 | 8 |  | 
9 | COc1cc2c(cc1OC)[C@H](C)NCC2 [Salsolidine] | 0 | 0 |  | 
10 | COc1ccc(-c2cc(=O)c3c(O)c(OC)c(OC)cc3o2)cc1 [Salvigenin] | 22 | 3 |  | 
11 | O=c1cc(-c2ccc(O)cc2)oc2cc(O[C@@H]3O[C@H](CO)[C@@H](O)[C@H](O)[C@H]3O)c([C@@H]3O[C@H](CO)[C@@H](O)[C@H](O)[C@H]3O)c(O)c12 [Saponarin] | 1 | 1 |  | 
12 | O=C1/C(=C/c2ccc(O)c(O)c2)COc2cc(O)ccc21 [Sappanone A] | 0 | 0 |  | 
13 | CC(C)(C)NC(=O)[C@@H]1C[C@@H]2CCCC[C@@H]2CN1C[C@@H](O)[C@H](Cc1ccccc1)NC(=O)[C@H](CC(N)=O)NC(=O)c1ccc2ccccc2n1 [Saquinavir] | 37 | 0 |  | 
14 | C[C@@H]1[C@H]2c3cc4c(cc3O[C@@]35OCOC3=CC(=O)[C@H](C[C@H]1C)[C@@H]25)OCO4 [Sauchinone] | 18 | 25 |  | 
15 | C=C[C@](C)(O)CC[C@@H]1[C@@]2(C)CCCC(C)(C)[C@@H]2CC[C@@]1(C)O [Sclareol] | 28 | 10 |  | 
16 | O=c1cc(-c2ccc(O)cc2)oc2cc(O)c(O)c(O)c12 [Scutellarein] |  |  | 49 | 3
17 | O=C(O)[C@H]1O[C@@H](Oc2cc3oc(-c4ccc(O)cc4)cc(=O)c3c(O)c2O)[C@H](O)[C@@H](O)[C@@H]1O [Scutellarin] | 31 | 1 |  | 
18 | Cc1ncc([N+](=O)[O-])n1CC(C)O (stereo not shown) [Secnidazole] |  |  | 26 | 3
19 | C/C=C1/C[C@@H](C)[C@@](C)(O)C(=O)OCC2=CC[N+]3([O-])CC[C@@H](OC1=O)[C@@H]23 (stereo partly shown) [Senecionine N‐oxide] | 39 | 43 |  | 
20 | C/C=C1/C[C@@H](C)[C@@](C)(O)C(=O)OCC2=CCN3CC[C@@H](OC1=O)[C@@H]23 [Senecionine] |  |  | 0 | 24
21 | C=C1C/C(=C/C)C(=O)O[C@@H]2CCN3CC=C(COC(=O)[C@]1(C)O)[C@H]23 [Seneciphylline] | 0 | 1 |  | 
22 | COC(=O)C1=CO[C@@H](O[C@@H]2O[C@H](CO)[C@@H](O)[C@H](O)[C@H]2O)[C@H]2[C@@H]1[C@H](O)C[C@]2(C)O [Shanzhiside methyl ester] | 32 | 38 |  | 
23 | CCCCC/C=C/C(=O)CCc1ccc(O)c(OC)c1 [Shogaol] | 0 | 5 |  | 
24 | COc1cc(C2Oc3cc([C@H]4Oc5cc(O)cc(O)c5C(=O)[C@@H]4O)ccc3OC2CO)ccc1O (stereo partly shown) [Silibinin] | 0 | 0 |  | 
25 | COc1cc([C@H]2Oc3cc([C@H]4Oc5cc(O)cc(O)c5C(=O)[C@@H]4O)ccc3O[C@@H]2CO)ccc1O [Silybin A] | 22 | 20 |  | 
26 | COc1cc([C@@H]2[C@H]3CO[C@@]4(O)C(=O)[C@@H]2C=C([C@H]2Oc5cc(O)cc(O)c5C(=O)[C@@H]2O)[C@@H]34)ccc1O [Silydianin] | 17 | 4 |  | 
27 | COc1ccc2c(O[C@@H]3C[C@H]4C(=O)N[C@]5(C(=O)NS(=O)(=O)C6CC6)C[C@H]5/C=C\CCCCN(C)C(=O)[C@@H]4C3)cc(-c3nc(C(C)C)cs3)nc2c1C [Simeprevir] | 2 | 25 |  | 

Row | Compound | inhibition at 110 µM [1] [%] | inhibition at 110 µM [2] [%] | inhibition at 110 µM [3] [%] | inhibition at 110 µM [4] [%]
28 | COc1ccc(-c2cc(=O)c3c(OC)c(OC)c(OC)cc3o2)cc1OC [Sinensetin] | 0 | 0 |  | 
29 | COc1ccc2c(OC)c3ccoc3nc2c1OC [Skimmianine] | 0 | 15 |  | 
30 | COc1cccc(O)c1-c1cc(=O)c2c(O)c(OC)c(OC)c(OC)c2o1 [Skullcapflavone II] |  |  | 4 | 6
31 | C[C@@H]1CC[C@@]2(NC1)O[C@H]1C[C@H]3[C@@H]4CC=C5C[C@@H](O[C@@H]6O[C@H](CO)[C@@H](O[C@@H]7O[C@@H](C)[C@H](O)[C@@H](O)[C@H]7O)[C@H](O)[C@H]6O[C@@H]6O[C@@H](C)[C@H](O)[C@@H](O)[C@H]6O)CC[C@]5(C)[C@H]4CC[C@]3(C)[C@H]1[C@@H]2C [Solamargine] | 0 | 0 |  | 
32 | C[C@H]1CC[C@@H]2[C@@H](C)[C@H]3[C@H](C[C@H]4[C@@H]5CC=C6C[C@@H](O)CC[C@]6(C)[C@H]5CC[C@]34C)N2C1 [Solanidine] | 0 | 0 |  | 
33 | C[C@@H]1CC[C@@]2(NC1)O[C@H]1C[C@H]3[C@@H]4CC=C5C[C@@H](O)CC[C@]5(C)[C@H]4CC[C@]3(C)[C@H]1[C@@H]2C [Solasodine] | 12 | 20 |  | 
34 | C[C@@H]1CC[C@@]2(NC1)O[C@H]1C[C@H]3[C@@H]4CC=C5C[C@@H](O[C@@H]6O[C@H](CO)[C@H](O)[C@H](O[C@@H]7O[C@H](CO)[C@@H](O)[C@H](O)[C@H]7O)[C@H]6O[C@@H]6O[C@@H](C)[C@H](O)[C@@H](O)[C@H]6O)CC[C@]5(C)[C@H]4CC[C@]3(C)[C@H]1[C@@H]2C [Solasonine] | 0 | 0 |  | 
35 | C=C1[C@H]2C[C@@]3([C@@H]1O)[C@@H](CC2=O)[C@]12[C@@H]4C[C@H]3[C@H]1N(CC)C[C@]4(C)CC[C@@H]2O [Songorine] |  |  | 5 | 9
36 | O=C1C=CC[C@@H]2[C@H]3CCCN4CCC[C@@H](CN12)[C@@H]34 [Sophocarpine] | 11 | 9 |  | 
37 | C=C(C)[C@H](CC=C(C)C)Cc1c(O)cc(O)c2c1O[C@H](c1ccc(O)cc1O)CC2=O [Sophoraflavanone G] |  |  | 55 | 4
38 | O=c1c(-c2ccc(O[C@@H]3O[C@H](CO)[C@@H](O)[C@H](O)[C@H]3O)cc2)coc2cc(O)cc(O)c12 [Sophoricoside] |  |  | 0 | 9
39 | CC1(C)C[C@H]2C3=CC[C@@H]4[C@@]5(C)CC[C@H](O)[C@](C)(CO)[C@@H]5CC[C@@]4(C)[C@]3(C)CC[C@@]2(C)[C@H](O)[C@@H]1O [Soyasapogenol A] | 5 | 3 |  | 
40 | CC1(C)C[C@@H](O)[C@]2(C)CC[C@]3(C)C(=CC[C@@H]4[C@@]5(C)CC[C@H](O)[C@](C)(CO)[C@@H]5CC[C@]43C)[C@@H]2C1 [Soyasapogenol B] | 9 | 39 |  | 
41 | C[C@@H]1CN(c2c(F)c(N)c3c(=O)c(C(=O)O)cn(C4CC4)c3c2F)C[C@H](C)N1 [Sparfloxacin] | 37 | 11 |  | 
42 | O=C1NCN(c2ccccc2)C12CCN(CCCOc1ccc(F)cc1)CC2 [Spiramide] | 49 | 6 |  | 
43 | Cc1cn([C@H]2C=C[C@@H](CO)O2)c(=O)[nH]c1=O [Stavudine] | 25 | 3 |  | 
44 | CCCCCCCCCCCCCCCCCC(=O)O [Stearic acid] | 0 | 1 |  | 
45 | C=C1C[C@@]23CC[C@H]4[C@@](C)(CCC[C@@]4(C)C(=O)O)[C@@H]2CC[C@]1(O)C3 [Steviol] | 13 | 34 |  | 
46 | C=C1C[C@@]23CC[C@H]4[C@@](C)(CCC[C@@]4(C)C(=O)O[C@@H]4O[C@H](CO)[C@@H](O)[C@H](O)[C@H]4O)[C@@H]2CC[C@]1(O[C@@H]1O[C@H](CO)[C@@H](O)[C@H](O)[C@H]1O[C@@H]1O[C@H](CO)[C@@H](O)[C@H](O)[C@H]1O)C3 [Stevioside] | 15 | 0 |  | 
47 | O=C(O)CCC(=O)O [Succinic acid] | 14 | 15 |  | 
48 | O=C(O)CCC(=O)Nc1ccc(S(=O)(=O)Nc2nccs2)cc1 [Succinylsulfathiazole] | 31 | 17 |  | 
49 | CC1(C)[C@H](C(=O)O)N2C(=O)C[C@H]2S1(=O)=O [Sulbactam] |  |  | 1 | 9
50 | Nc1ccc(S(=O)(=O)Nc2ccc(Cl)nn2)cc1 [Sulfachloropyridazine] | 14 | 0 |  | 
51 | Nc1ccc(S(=O)(=O)Nc2ncccn2)cc1 [Sulfadiazine] | 14 | 7 |  | 
52 | COc1cc(NS(=O)(=O)c2ccc(N)cc2)nc(OC)n1 [Sulfadimethoxine] | 15 | 3 |  | 
53 | COc1ncnc(NS(=O)(=O)c2ccc(N)cc2)c1OC [Sulfadoxine] | 18 | 5 |  | 
